“And” between values parts separate entries of the source, which are not always exact repeats. Equal entries are not always repeated. “Also recorded” adds a separate entry of the source.
What was measured:
ERK1/2 [1] = assay: Phospho-/total ERK1/2 ELISA in EGF-stimulated T-47D cell smears; type: cell-based, human; conditions: T-47D cells, AG1478 0.5 uM, PD98059 20 uM
Description: T47D cells were maintained in Dulbecco's modified Eagle's medium (Life Technologies, Inc.) supplemented with 10% fetal calf serum and antibiotics (Life Technologies, Inc.). Prior to EGF (Sigma) stimulation, cells were starved for 24 h in serum-free medium.
Total cell lysates were obtained from either cells cultured in vitro or from tumor FNAB samples. Protein extracts were resolved by 4-15% SDS-PAGE and probed with Rabbit anti-EGFR, anti-phospbo-EGFR, anti-ERK1 and anti-phospho-ERK antibodies obtained from New England Biolabs (Beverly, Mass.). Immunoreactive proteins were visualized by enhanced chemiluminescence (Amersham International, United Kingdom). Total and phospho-ERK1/2 proteins were quantified by sandwich [LISA kits (BioSource International, Camarillo, Calif., USA) as described in the manufacturer's protocols. The reaction was read at 450 nm in an ELISA plate reader.
Western blot analysis of protein samples is a conventional method for phosphoprotein analysis. However, Western blot analysis is limited in throughput and quantitative precision, and also requires large sample amounts. […] Therefore, it was tested if quantitative ELISA assays can be applied to cytologic samples to increase the assay sensitivity to measure the expression levels and activation status of specific signaling pathways. […]

[2] = system: primary human pancreatic cancer xenograft tumors; assay: Tumor growth (RTG) in xenograft mouse models of primary human pancreatic cancer; type: in vivo, athymic (nu+/nu+) mice
Source text: Four-week-old female athymic (nu+/nu+) mice were purchased from Harlan (Harlan Laboratories, Washington, D.C.). The research protocol was approved by the Johns Hopkins University Animal Care and Use Committee and animals were maintained in accordance to guidelines of the American Association of Laboratory Animal Care. Briefly, frozen pancreatic xenografts in first passage in mice, after being obtained from surgical specimens of patients undergoing pancreatic resection for adenocarcinoma at the Johns Hopkins Hospital were re-implanted subcutaneously in groups of 5 mice for each patient, with 2 small pieces per mouse (F2 generation). Tumors were allowed to grow to a size of 1.5 cm at which point they were harvested, divided into small ˜3×3×3 mm pieces, and transplanted to another 18-22 mice, with two tumors per mouse. Tumors from this second mouse-to-mouse passage were allowed to grow until reaching −200 mm^3, at which time mice were randomized in the following three treatment groups, with 6 mice in each group: control (vehicle), erlotinib (50 mg/kg/day i.p.), and temsirolimus (20 mg/kg days 1-5 i.p.). Mice were monitored daily for signs of toxicity and were weighed three times per week. Tumor size was evaluated three times per week by caliper measurements using the following formula: tumor volume=[length×width^2]/2 as previously reported (19). Relative tumor growth (RTG) was calculated by tumor growth of treated mice divided by tumor growth of control mice (T/C)×100. Experiments were terminated on day 28. Tumor response was defined as sensitive, when RTG was less than 50% on day 28.

ERK1/2 [3] = assay: Ex vivo FNAB drug sensitivity assay, ERK1/2 phosphorylation by Western blot; type: cell-based, human
Description: Tumor cells were collected by FNAB from the xenograft animals before the start of treatment using a sterile 25G short needle. Tumor samples were immediately transferred into 10 ml sterile prewarmed complete RPMI-1640 culture medium containing 10% FBS, penicillin (200 μg/ml), and streptomycin (200 μg/ml). Cells were incubated with 0.04% trypan blue (Sigma) dissolved in PBS (9.1 mM Na2HPO4, 1.7 mM NaH2PO4, and 150 mM NaCl, pH 7.4). The viable (membrane-intact) and dead cells were then counted using Neubauer hemocytometer and the total viable cell count was used to calculate final working volumes. Approximately 25,000 viable tumor cells were seeded into each well of a 6-well polypropylene microplate. Cells were treated in duplicates with vehicle (control), erlotinib (5 μM) or temsirolimus (1 μM) in a humidified 5% CO2 incubator at 37° C. for 6 hours. No fibroblast and endothelial cell growth was observed. Following treatment, non-adherent and adherent cells (only a few, collected by scraping) were pooled together and centrifuged at 500×g for 5 min at 4° C. After washing with PBS, cells were lysed in 100 μL of ice-cold lysis buffer (50 mM Tris-HCl, 0.25M NaCl, 0.1% (v/v) Triton X-100, 1 mM EDTA, 50 mM NaF, and 0.1 mM Na3VO4, pH 7.4) containing protease and phosphatase inhibitors (Roche Molecular Biochemicals) and analyzed by Western blot.
Protein concentrations obtained from FNAB samples were quantified before each experiment. Protein extracts (15 μg) were electrophoresed on a 10% (w/v) SDS-polyacrylamide gel. After electrotransfer to Immobilon-P membranes (Millipore), membranes were blocked at room temperature using SuperBlock (Pierce) for one hour. The primary antibodies were diluted at 1:1000 in 1:10 dilution of SuperBlock solution and the membranes were incubated with primary antibodies overnight at 4° C. The antibodies tested were phospho-ERK1/2 (Cell signal #9101), phospho-S6 Ribosomal Protein (Cell Signaling Technology, Beverly, Mass.) and total ERK1/2 (Cell Signaling Technology, Beverly, Mass.) and total S6 Ribosomal Protein (Cell Signaling Technology, Beverly, Mass.). The next day, the membranes were washed and incubated for 1 h at room temperature with horseradish peroxidase (HRP)-conjugated secondary antibodies, rabbit IgG-HRP (Santa Cruz Biotechnology), or mouse IgG-HRP (Santa Cruz Biotechnology) at a final dilution of 1:3000. Antibody binding was visualized using enhanced chemiluminescence (SuperSignal West Pico, Pierce) and autoradiography.
To test if tumor cells obtained by FNAB can be used in the ex vivo assays to predict tumor response in vivo, 25,000 viable cancer cells, as determined by trypan blue dye exclusion, were treated with erlotinib or temsirolimus for six hours, after which signal pathway inhibition was analyzed by Western blot. Under these cell culture conditions no fibroblast and endothelial cell growth was detected (data not shown).
To determine whether standard clinical FNAB specimens provide adequately cellular tumor samples to perform ex vivo prediction assays, adenocarcinoma cells were collected by ultrasound or computer tomography-guided FNAB technique from pancreatic cancer patients during routine diagnostic procedures. Tumor cells were isolated by centrifugation from the needle rinse suspensions and treated with vehicle (control), erlotinib, or temsirolimus ex vivo for six hours.

HuCCT-1 tumors = assay: HuCCT-1 xenograft tumor growth; type: in vivo, athymic (nu+/nu+) mice; conditions: single agents: gefitinib 150 mg/Kg i.p. days 1-5 and 8-12, CI-1040 150 mg/Kg twice a day oral days 1-14
Description: (§1) Four to 6-week-old female athymic (nu+/nu+) mice were purchased from Harlan (Harlan Laboratories, Washington, D.C.). The research protocol was approved by the Johns Hopkins University Animal Care Committee and animals were maintained in accordance with the guidelines of the American Association of Laboratory Animal Care. […] Mice were monitored daily for signs of toxicity and were weighed three times per week. Tumor size was evaluated three times per week by caliper measurements using the following formula: tumor volume=[length×width^2]/2. Tumor growth inhibition was calculated by tumor volume of treated mice divided by tumor volume of control mice. Experiments were terminated on day 14.
To explore the feasibility of implementing this method in in vivo studies, mouse xenografts were next employed to test whether FNAB material obtained from tumor tissue can be utilized to monitor and predict therapy response in vivo. For this purpose HuCCT-1 cholangiocarcinoma cells were used to create a xenograft mouse model of human cholangiocarcinoma. […] Tumor volumes were measured and compared with tumors from animals that received drug vehicle alone.

ERK1/2 [4] = assay: HuCCT-1 xenograft tumor FNAB Western blot, ERK1/2 activity; type: in vivo, human
Description: as §1
Fine needle aspirates were obtained with a 25G needle and 10 ml syringe, passing the needle through the tumor 10 times with application of 1-2 ml suction The aspirated material was expressed onto clear glass slides and smeared. All smears were allowed to air dry and then stained with Diff-Quik stain (Baxter Healthcare, Miami, Fla.). Five to ten AD/DQ-stained cytological smears were prepared from each tumor sample. The cellular composition of each aspirate was assessed by cytopathologists.
(§2) Total cell lysates were obtained from either cells cultured in vitro or from tumor FNAB samples. […] Immunoreactive proteins were visualized by enhanced chemiluminescence (Amersham International, United Kingdom). Total and phospho-ERK1/2 proteins were quantified by sandwich [LISA kits (BioSource International, Camarillo, Calif., USA) as described in the manufacturer's protocols. The reaction was read at 450 nm in an ELISA plate reader.
Next, whether FNAB samples obtained from tumor tissue at the early stage of therapy can be used to predict tumor response was examined. […] Expression and phosphorylation levels of ERK 1/2 were analyzed on Western blot by using extracts prepared from AD/DQ-stained FNAB samples.

ERK1/2 [5] = assay: HuCCT-1 xenograft tumor FNAB phospho-/total ERK1/2 ELISA; type: in vivo, human
Description: as §1, §2
Western blot analysis of protein samples is a conventional method for phosphoprotein analysis, but is limited in throughput, quantitative precision and requires large sample amounts. ELISA assays offer alternatives to Western blot with higher throughput and increased sensitivity. […] For this purpose the tumor FNAB samples, which have been analyzed on Western blot above (FIG. 16A), were used to assess the expression and phosphorylation of ERK1/2 proteins by the total and phospho-specific ERK1/2 ELISA assays, respectively.
The amounts of phosphorylated ERK1/2 were normalized for the total contents of these proteins in each sample group and therapy-mediated changes in their phosphorylation status were quantified.

Structure (SMILES): COc1cccc(-c2cc(=O)c3ccccc3o2)c1N [PD98059]
- inhibition of EGF-induced ERK1/2 phosphorylation (phospho-ELISA normalized for total ERK1/2) (ERK1/2 [1]): 50% and 60%

Structure (SMILES): C#Cc1cccc(Nc2ncnc3cc(OCCOC)c(OCCOC)cc23)c1 [erlotinib]
- RTG ([2]; remaining seven tumors (all but A198), erlotinib 50 mg/kg/day i.p., day 28): greater than 50%
- tumor response ([2]; tumor A198): sensitive (Tumor response was defined as sensitive, when RTG was less than 50% on day 28)
- tumor response ([2]; tumor A265): resistant (greater than 50% RTG and were defined as resistant)
- ERK1/2 activation ex vivo (ERK1/2 [3]; all resistant tumors of the xenograft panel, erlotinib 5 μM, 6 hours): failed to inhibit ERK1/2 activation
- ERK1/2 phosphorylation ex vivo (ERK1/2 [3]; cancer cells from pancreatic cancer patient 1, six hours): dramatically blocked ERK1/2 phosphorylation
- phosphorylation of ERK1/2 ex vivo (ERK1/2 [3]; cells from resistant tumor A265, erlotinib 5 μM, 6 hours): failed to inhibit ERK1/2 phosphorylation
- phosphorylation of ERK1/2 ex vivo (ERK1/2 [3]; cells from tumor A198, erlotinib 5 μM, 6 hours): dramatic inhibition; also recorded: did show inhibition of ERK1/2; also recorded: inhibited ERK1/2 activation
- ERK1/2 activity ex vivo (ERK1/2 [3]; tumor cells of pancreatic cancer patient 2 and 3, six hours): did not effectively block ERK1/2 activity

Structure (SMILES): O=C(NOCC1CC1)c1ccc(F)c(F)c1Nc1ccc(I)cc1Cl [CI-1040]
- decrease in tumor volume (HuCCT-1 tumors): 11%
- ERK1/2 activity (phospho-ERK1/2 immunoblot) (ERK1/2 [4]; HuCCT-1 tumor FNAB samples of treated mice, gefitinib, CI-1040 alone or combined): only a slight inhibition in ERK1/2 activity
- ERK1/2 activity, serial FNAB sampling (ERK1/2 [4]; combination: as early as 6 h after first administration, sustained for two weeks, single agents: 6 h or 5 d): neither of these agents alone caused inhibition
- phosphorylation levels of ERK1/2 by phospho-ERK1/2 ELISA (raw data) (ERK1/2 [5]; HuCCT-1 tumor FNAB samples of treated animals): neither gefitinib nor CI-1040 treatment alone caused any significant change
- decrease of ERK1/2 phosphorylation (normalized for total ERK1/2) (ERK1/2 [5]; HuCCT-1 tumor FNAB, CI-1040 alone): 19%

Reference: patent publication US20090325202A1, “Methods for Developing and Assessing Therapeutic Agents” (priority 2006, published 2009)
